Data reported in patent publication US20180008587A1, “THIOHYDANTOIN ANDROGEN RECEPTOR ANTAGONISTS FOR THE TREATMENT OF CANCER” (Jaressen Pharmaceutica NV, priority 2016, published 2018).
Positions count from the first letter of the chain named.

What was measured:
Format in all cases: cell-based
[1] = target: T1, wild-type Androgen Receptor (AR-wt) (Homo sapiens, UniProt P10275); experiment: LNCaP-AR-wt ANT reporter assay (ARE firefly luciferase, antagonist mode); conditions: for IC50: antagonist mode, 400 pM R-1881 challenge, −Log10(IC50 [Molar]), read-out: LNCaP-AR-wt ANT pIC50 (converted); for Emax: maximum % inhibition of R1881 control response over tested concentration range, read-out: LNCaP-AR-wt ANT MAX % Inh
T1 construct: expressed in transfected cells; host or cells: LNCaP (LNCaP AR (cs))
T1 sequence (P10275 1-920): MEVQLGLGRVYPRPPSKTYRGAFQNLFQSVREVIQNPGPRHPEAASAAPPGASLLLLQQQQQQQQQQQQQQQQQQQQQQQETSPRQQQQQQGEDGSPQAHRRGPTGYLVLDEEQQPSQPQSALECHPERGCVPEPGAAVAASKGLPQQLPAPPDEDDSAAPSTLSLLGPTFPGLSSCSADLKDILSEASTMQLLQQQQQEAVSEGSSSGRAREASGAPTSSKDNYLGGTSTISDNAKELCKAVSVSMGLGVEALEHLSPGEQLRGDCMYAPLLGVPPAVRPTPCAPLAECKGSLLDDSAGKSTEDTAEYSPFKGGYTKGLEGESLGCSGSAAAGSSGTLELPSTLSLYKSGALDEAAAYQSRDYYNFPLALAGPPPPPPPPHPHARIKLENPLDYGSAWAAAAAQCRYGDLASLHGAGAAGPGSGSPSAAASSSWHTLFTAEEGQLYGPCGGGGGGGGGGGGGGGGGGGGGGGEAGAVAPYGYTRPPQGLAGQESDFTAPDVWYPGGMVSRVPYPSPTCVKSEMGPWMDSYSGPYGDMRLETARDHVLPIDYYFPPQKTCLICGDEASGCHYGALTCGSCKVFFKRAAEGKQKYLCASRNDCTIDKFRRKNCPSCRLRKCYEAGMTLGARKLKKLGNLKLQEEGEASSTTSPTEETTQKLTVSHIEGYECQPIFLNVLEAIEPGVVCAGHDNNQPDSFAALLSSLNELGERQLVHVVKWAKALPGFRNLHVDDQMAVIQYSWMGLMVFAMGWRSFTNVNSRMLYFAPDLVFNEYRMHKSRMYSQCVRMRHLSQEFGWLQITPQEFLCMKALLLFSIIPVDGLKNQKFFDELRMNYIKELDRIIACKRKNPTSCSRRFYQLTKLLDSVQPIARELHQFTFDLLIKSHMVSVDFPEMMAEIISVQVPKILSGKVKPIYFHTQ
Method in brief: (§1)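 LNCaP stable pooled lines expressing ARE-firefly luciferase, in charcoal-stripped serum medium, were exposed to compounds; antagonist mode used agonist at 400 pM (WT) or 600 pM (F876L).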

[2] = target: T2, F876L mutant Androgen Receptor (AR-F876L) (Homo sapiens, UniProt P10275, F877L); experiment: LNCaP-AR-F876L ANT reporter assay (ARE firefly luciferase, antagonist mode); conditions: for Emax: maximum % inhibition of R1881 control response over tested concentration range, read-out: LNCaP-AR-F876L ANT MAX % Inh; for IC50: read-out: LNCaP-AR-F876L ANT pIC50 (converted)
T2 construct: expressed in transfected cells; host or cells: LNCaP (LNCaP F876L)
T2 sequence (P10275 1-920 F877L): T1 sequence (P10275 1-920) with F877L
Method in brief: as §1

[3] = target: T1, wild-type Androgen Receptor (AR-wt); experiment: LNCaP-AR-wt AG reporter assay (ARE firefly luciferase, agonist mode); conditions: for EC50: agonist mode, −Log10(EC50 [Molar]), read-out: LNCaP-AR-wt AG pEC50 (converted); for Emax: maximum % stimulation (agonist response) over tested concentration range, read-out: LNCaP-AR-wt AG MAX % Stim
Method in brief: (§2)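 Cells: stable LNCaP pools, AR-wt or AR-F876L, in charcoal-stripped serum. Agonist challenge for antagonist mode was 400 pM (WT) and 600 pM (F876L). Luminescence was measured after 20-24 h incubation.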

[4] = target: T2, F876L mutant Androgen Receptor (AR-F876L); experiment: LNCaP-AR-F876L AG reporter assay (ARE firefly luciferase, agonist mode); conditions: for EC50: agonist mode, −Log10(EC50 [Molar]), read-out: LNCaP-AR-F876L AG pEC50 (converted); for Emax: maximum % stimulation (agonist response) over tested concentration range, read-out: LNCaP-AR-F876L AG MAX % Stim
Method in brief: as §2

IC50 [1] [µM]	Emax [1] [%]	Emax [2] [%]	IC50 [2] [µM]	EC50 [3] [µM]	Emax [3] [%]	EC50 [4] [µM]	Emax [4] [%]	SMILES
0.24	97.5	101	0.145	> 15.1	-0.1	> 15.1	0	N#Cc1ncc(N2C(=O)C3(CCC3)N(c3ccc(OC4CCNCC4)cc3)C2=S)cc1C(F)(F)F [Cpd 35, 5-[5-oxo-8-[4-(4-piperidyloxy)phenyl]-7-thioxo-6,8-diazaspiro[3.4]octan-6-yl]-3-(trifluoromethyl)pyridine-2-carbonitrile]
	101	99.8			0.2		0.8	CN1CCC(Oc2ccc(N3C(=S)N(c4cnc(C#N)c(C(F)(F)F)c4)C(=O)C34CCC4)cc2)CC1 [Cpd 85, 5-[8-[4-[(1-methyl-4-piperidyl)oxy]phenyl]-5-oxo-7-thioxo-6,8-diazaspiro[3.4]octan-6-yl]-3-(trifluoromethyl)pyridine-2-carbonitrile]
0.24	101	99.5	0.162	> 15.1	-0.3	> 15.1	0.2	N#Cc1ncc(N2C(=O)C3(CCC3)N(c3ccc(C(=O)NCCCO)c(F)c3)C2=S)cc1C(F)(F)F [Cpd 40, 4-[6-[6-cyano-5-(trifluoromethyl)-3-pyridyl]-5-oxo-7-thioxo-6,8-diazaspiro[3.4]octan-8-yl]-2-fluoro-N-(3-hydroxypropyl)benzamide]
